Laboratory results reported in ChEMBL document CHEMBL2094269, “WEHI/Eskitis Trypanosoma b. brucei screening data”.

What was measured:
[1] = test system: Trypanosoma brucei brucei; assay: microbe, parasite or virus in culture; type: functional, organism-based, STIB 795
Description: DNDI: Inhibition of Human African Trypanosomiasis (HAT), STIB 795, in vitro

[2] = DNDI: Cytotoxicity against human MRC-5 lung fibroblast cells.; settings: IC50

Row | SMILES | IC50 ([1]; Trypanosoma brucei, STIB 795) [µM] | IC50 [2] [µM] | IC50 [1] [µM]
1 | O=C1Nc2ccc(OC(F)(F)F)cc2C1=O | 4.72 | > 41.7 | –
2 | CCN1C=CC(=Cc2ccc3cc(C)ccc3[n+]2C)C=C1 | 0.538 | > 20.8 | –
3 | Cc1c2[nH]c3ccccc3c2c2c([n+]1C)CC(C)(C)CC2 | 8.67 | > 41.7 | –
4 | O=C1/C(=C/c2ccncc2)CCC/C1=C\c1ccncc1 | 0.03 | 1.94 | –
5 | O=C1/C(=C\c2cccnc2)CCc2ccccc21 | 5.02 | > 20.8 | –
6 | COCCN1CSC(=S)N(Cc2ccco2)C1 | 4.84 | > 4.17 | –
7 | Cc1ccccc1C(=O)O/N=C(\N)Cc1cccs1 | 0.414 | > 20.8 | –
8 | N=C(NOC(=O)N1CCOCC1)c1ccccc1 | 1.19 | > 4.17 | –
9 | COc1ccc(C(=N)NOC(=O)c2ccco2)cc1 | 3.69 | > 20.8 | –
10 | CCc1ccc2nc3nc(C)cc(C)c3c(N)c2c1 | 4.86 | > 20.8 | –
11 | C=CCS(=O)(=O)c1nc2ccccc2s1 | 5.73 | > 20.8 | –
12 | N=C(NOC(=O)CC1CCCCC1)c1cccnc1 | 5.36 | > 41.7 | –
13 | Cc1ccccc1C(=O)O/N=C(\N)c1ccccc1 | 0.881 | > 20.8 | –
14 | Cc1cc(C)c2c(N)c3cccc(C)c3nc2n1 | 0.35 | 0.9 | –
15 | Cc1cccc(C(=N)NOC(=O)c2ccoc2C)c1 | 0.338 | > 10.4 | –
16 | Clc1ccc2nnnc(-c3ccccc3)c2c1 | 2.81 | 4.48 | –
17 | COc1ccc(C(=N)NOC(=O)c2cccs2)cc1 | 1.84 | > 41.7 | –
18 | Cc1ccc(O)c(NN=C2C(=O)CC(C)(C)CC2=O)c1 | 5.09 | > 4.17 | –
19 | Oc1c(Cl)cc(CN2CCOCC2)c2cccnc12 | 0.956 | > 20.8 | 1.12
20 | CN(C)c1ccc(/C=C/c2cc[n+](C)cc2)cc1 | 0.458 | > 20.8 | –
21 | c1ccc2c(c1)CC1CNCc3cccc(c31)S2 (configuration not stated) | 5.59 | > 41.7 | –
22 | c1ccc(NN=C(c2ccccn2)c2ccccn2)nc1 | 0.468 | > 1.04 | –
23 | CC1=NN(C(=O)c2ccccc2O)C(C)(O)C1 (configuration not stated) | 0.66 | > 1.04 | –
24 | COC(=O)N/N=C\c1ccc(-c2ccccc2Cl)o1 | 1.95 | > 41.7 | –
25 | Cc1ccc(C(=O)C(CO)n2ccnc2)cc1 (configuration not stated) | 2.05 | > 41.7 | –
26 | Cc1cc(Cl)n(C)c2nc3ccccc3c1-2 | 0.631 | > 10.4 | –
27 | CC(C)(C)C/C(=N\NC(=N)N)c1ccccc1 | 5.39 | > 20.8 | –

Row | SMILES | IC50 ([1]; Trypanosoma brucei, STIB 795) [µM] | IC50 [2] [µM] | IC50 [1] [µM]
28 | C/N=c1\nnc(Nc2ccccc2O)c(N)o1 | 0.287 | 4.68 | –
29 | Cc1cccc(N2CCN(CCN)CC2)c1C | 5.21 | > 41.7 | –
30 | CCCCOc1ccccc1/C=N/NC(=N)N | 5.38 | > 41.7 | –
31 | O=C(COc1ccc(Cl)cc1Cl)NO | 0.921 | > 20.8 | –
32 | CCCCNCc1[nH]c2ccccc2c1Cl | 3.1 | > 20.8 | –
33 | CCN1CCO/C1=C\C=C\C1=[N+](CC)CCO1 | 0.166 | > 41.7 | –
34 | Nc1ccc2c(c1)C(=O)C(=O)c1cc(N)ccc1-2 | 0.975 | > 20.8 | –
35 | O=C1CN(Cc2ccccc2)c2ccccc2N1 | 1.01 | 8.3 | –
36 | CCCCOc1ccc(CSC(=N)N)cc1 | 5.48 | > 20.8 | –
37 | O=C(NNc1cccccc1=O)c1ccccc1 | 5.18 | > 10.4 | –
38 | CN1c2ccccc2N(C)C1c1ccc(O)cc1 | 3.47 | > 41.7 | –
39 | C/C(CC(C)(C)C1CCCCC1)=N/NC(N)N | 1.4 | > 4.17 | –
40 | CC1=NN(c2ccc3cccc(O)c3n2)C(=O)C1 | 1.31 | > 10.4 | –
41 | Cn1cnn(C2CC(=O)C3OCC2O3)c1=S (configuration not stated) | 3.7 | > 20.8 | 2.07
42 | CC1CC2=C(C(=O)c3ccccc3C2=O)C(C)O1 (configuration not stated) | 5.59 | > 41.7 | –
43 | COc1ccc(O)c(/C=N/Nc2ccccn2)c1 | 4.69 | > 20.8 | –
44 | CNC(C)(C)Cc1c2c(cc3c1CCC3)CCC2 | 4.62 | > 41.7 | –
45 | COc1cc(OC)c2nc(C)c3c(c2c1)CNC3 | 2.5 | 7.02 | –
46 | Cc1ccc(O)c(NC(=O)c2nc(N)n(C)n2)c1 | 0.196 | 1.84 | –
47 | CCC1CO/C(=C2\Sc3ccccc3C2=O)N1 (configuration not stated) | 5.08 | > 20.8 | –
48 | CN(C)C(=S)N/N=C1\Cc2ccccc2C1=O | 0.989 | > 20.8 | –
49 | Oc1c(/N=N/c2ccccn2)ccc2ccccc12 | 0.718 | > 20.8 | –
50 | O=C1c2ccccc2C(=O)N1/N=C/c1ccccc1 | 0.727 | > 41.7 | –
51 | CCn1ccnc1-c1cccc(-c2ccccn2)n1 | 0.425 | > 1.04 | –
52 | CC[N+]1=C(/C=C/N(C)C)c2cccc3cccc1c23 | 3.41 | > 20.8 | –
53 | O/N=C1\C=Cc2[nH]c(-c3ccccc3)cc2\C1=N/O | 0.254 | 0.721 | –
54 | Cc1cccc(C(=O)O/N=C(\N)c2ccncc2)c1 | 5.42 | > 41.7 | –

Row | SMILES | IC50 ([1]; Trypanosoma brucei, STIB 795) [µM] | IC50 [2] [µM] | IC50 [1] [µM]
55 | Cc1ccc2[nH]c3c(c2c1)CCC/C3=N\N=C(N)N | 8.57 | > 20.8 | –
56 | CC(=O)C(C(C)=O)C1=CC(=O)C(=O)c2ccccc21 | 7.06 | > 20.8 | –
57 | COc1ccc(C2=C(C)C(=O)C(C)=C(C)C2=O)cc1 | 5.55 | > 20.8 | –
58 | S=c1c(Cl)c(Cl)cnn1-c1ccccc1 | 6.17 | > 20.8 | –
59 | CCN(CC)c1ccc(/C=N/n2cnnc2)c(O)c1 | 1.92 | > 41.7 | –
60 | CS(=O)(=O)/C=C(\c1ccccc1)c1ccncc1 | 0.641 | > 20.8 | –
61 | CCc1cc2c(cc1C(C)N)C(C)(C)CCC2(C)C (configuration not stated) | 5 | > 20.8 | –
62 | CC(C)(C)C(N)CCc1ccc(Cl)cc1Cl (configuration not stated) | 5.49 | > 41.7 | –
63 | COC(=O)c1ccccc1N/N=C1\C(=N)ON=C1N | 0.41 | > 41.7 | –
64 | Cc1ccc([S@+]([O-])/C(F)=C\c2ccccn2)cc1 | 0.903 | 5.57 | –
65 | Cc1ccc2c(c1)C(=O)C(CN1CCOCC1)CO2 (configuration not stated) | 2.17 | > 20.8 | –
66 | Oc1c(Cl)cc(CN2CCCC2)c2cccnc12 | 4.32 | > 4.17 | –
67 | O=c1nc2oc3ccc4ccccc4c3cc-2c(=O)[nH]1 | 5.06 | > 20.8 | –
68 | CC1(C)CCC[C@]2(C)C=C(C3OCCO3)C(=O)C[C@@H]12 | 5.21 | > 41.7 | –
69 | O=C1c2ccccc2C(=O)c2c1ccc1c(=O)o[nH]c21 | 4.64 | > 41.7 | –
70 | Cc1cccc(NCc2ccc(O)c3ncccc23)n1 | 4.89 | > 20.8 | –
71 | CN(C)c1ccc(/C=C\C=C\c2ccc[n+](C)c2)cc1 | 0.354 | > 20.8 | –
72 | Cc1cc(C)nc(Nc2nc(N)c3ccccc3n2)n1 | 3.79 | 6.09 | –
73 | CCN(Cc1ccccc1)S(=O)(=O)c1ncn[nH]1 | 3.38 | > 41.7 | –
74 | CCCCCc1ccc(-c2ccc(C(=N)N)cc2)cc1 | 5.73 | 15.5 | –
75 | COc1ccc(Nc2nc3ccccc3c(=O)o2)cc1 | 0.435 | > 20.8 | –
76 | Cc1ccc(C23CC4CC(CC(CN)(C4)C2)C3)cc1C | 0.91 | > 20.8 | –
77 | C/C(Cl)=C\CN1C(=O)C(=O)c2cc(Cl)ccc21 | 4.87 | > 41.7 | –
78 | O=C(Cc1cc(O)[nH]n1)N/N=C/C=C/c1ccccc1 | 5.31 | > 41.7 | –
79 | CCC(C)NC(=O)c1nc(-c2ccccc2)cnc1N (configuration not stated) | 0.426 | > 41.7 | –
80 | CC1CS/C(=N/c2ccc(Br)cc2)N1 (configuration not stated) | 6.65 | > 41.7 | –
81 | C/C(=N\NC(=O)Cc1ccc(F)cc1)c1ccccn1 | 5.17 | > 4.17 | –

Row | SMILES | IC50 ([1]; Trypanosoma brucei, STIB 795) [µM] | IC50 [2] [µM] | IC50 [1] [µM]
82 | O=C1CC(n2nnnc2-c2ccccc2)C2COC1O2 (configuration not stated) | 2.18 | > 20.8 | –
83 | CN(C)c1ccc(C2=Nc3cccc4cccc2c34)cc1 | 0.434 | > 41.7 | –
84 | COc1ccc(CC(C)N)c(Sc2ccccc2)c1 (configuration not stated) | 5.42 | > 41.7 | –
85 | c1coc(CNc2c3ccccc3nc3ccccc23)c1 | 2.73 | > 4.17 | –
86 | C[N+](CC#CC1CC1)(C1CCCCC1)C1CCCCC1 | 8.85 | > 41.7 | –
87 | Oc1ccc(Cn2cnc3ccccc32)c2cccnc12 | 1.55 | > 4.17 | –
88 | Cc1ccc(OCCCCCN2CCNCC2)c(C)c1 | 5.38 | > 41.7 | –
89 | CN(C)CCCNCCCc1ccc(C(C)(C)C)cc1 | 0.079 | 8.02 | –
90 | COC(=O)c1[nH]cc2c3cccnc3c3ncccc3c12 | 0.064 | 0.59 | –
91 | Cc1ccc(/N=N/c2ccc(O)c3ncccc23)cc1C | 4.92 | > 20.8 | –
92 | CC[n+]1ccccc1/C=C1\C=Cc2cc(C)ccc2N1C | 0.911 | > 20.8 | –
93 | N=C(N)n1nc(-c2ccccc2)cc1-c1ccccc1O | 5.07 | > 20.8 | –
94 | Cc1nn2c3c(nnc2c1-c1ccccc1)C(=O)CCC3 | 0.697 | 18.1 | –
95 | O=C(Nc1cccc(Cl)c1)O/N=C1\CC2CCC1C2 (configuration not stated) | 0.857 | > 20.8 | –
96 | CN(C)CCn1c2ccccc2c2cnc(N)c(C#N)c21 | 3.62 | > 4.17 | –
97 | Cc1cc(N2CCN(C)CC2)c2[nH]c3ccccc3c2c1 | 0.748 | 7.26 | –
98 | CCCCc1c(C)[nH]n(-c2nc3ccccc3[nH]2)c1=O | 0.895 | > 1.04 | –
99 | N#Cc1ccccc1N=NNc1ccccc1C#N | 5.08 | > 41.7 | –
100 | CN(C)CCCNc1c2c(nc3ccccc13)CCC2 | 1.82 | 5.76 | –
101 | N#Cc1c(N)nc2[nH]nc(N)c2c1-c1ccccc1 | 3.04 | > 20.8 | –
102 | CCN1/C(=C/c2cccc[n+]2C)C=Cc2cc(C)ccc21 | 0.909 | > 20.8 | –
103 | Oc1c(CN2CCCCC2)ccc2cccnc12 | 3.78 | > 4.17 | –
104 | O=C1c2ccccc2C(=O)c2c1ccc1nonc21 | 0.394 | > 20.8 | –
105 | COc1cc2nc(N(C)C)nc(N)c2cc1OC | 5.21 | > 20.8 | –
